We go through 11 molecules from patent US12006330B2, “Substituted macrocyclic compounds and related methods of treatment” (Alkermes, Inc., priority 2020, dated 2024).

The test system of one data set is MDR1. Description: MDCK-MDR1 permeability assay. In kind it is in vitro ADME. The conditions noted are these: dog, MDCK-MDR1, MDCK-MDR1 cells; for efflux ratio at 2 h, 3 μM: Papp B→A divided by Papp A→B, read-out: Efflux ratio (ER); for Papp A→B at 2 h, 3 μM: test compound 3 μM, 2 hours at 37 degrees C, apical to basolateral. A digest of the protocol: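 Test compound at 3 μM in HBSS was dosed apical-to-basolateral (with 100 μM Lucifer Yellow) and basolateral-to-apical across MDCK-MDR1 monolayers at 37 °C for 2 h. Receiver and donor samples were quantified by LC-MS/MS. Papp = dQ/dt×1/A×C0, efflux ratio = Papp(B→A)/Papp(A→B), and percent recovery was also derived.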

Another data set has as its system Sprague-Dawley rats. Description: Assessment of wake promotion in Sprague-Dawley rats (EEG/EMG). The settings on record: male Sprague-Dawley rats, 3 mpk, dosed at ZT5, 6-hour post-dose period. In kind it is in vivo, rat. As to the method: Wake promotion was assessed using electroencephalography (EEG) and electromyography (EMG) in adult male Sprague-Dawley rats. All rats (Charles River Laboratories, Raleigh, NC, USA) were intraperitoneally implanted with telemetry devices (F50-EEE, Data Sciences International Inc., MN, USA) under isoflurane anesthesia. For EEG, stainless steel screws were implanted over frontal cortex and parietal cortex, and reference screws were placed over cerebellum. Additionally, an electrode was placed in neck muscle for EMG. Rats were given carprofen post-surgery and underwent a 7 to 10-day recovery period. Rats habituated to the experimental room for 7 days and were maintained on a 12-hour light-dark cycle.
EEG and EMG data were recorded using the DSI telemetry system and Ponemah software (Data Sciences International Inc., MN, USA). Sleep-wake stages were scored both manually and with Somnivore, a supervised machine learning software platform, in 10 second epochs. Records were visually inspected as needed post-processing.
All test compounds were dissolved in 5% DMSO and suspended in 95% saline with 0.5% methylcellulose and 0.5% tween. […] Unless otherwise indicated, all compounds were dosed orally. Recordings for each rat were initiated immediately after dosing and lasted for 6 hours post-dose.
Two key endpoints include wakefulness time and cortical activation time. Wakefulness time is derived from the sleep-wake stage analysis. Cortical activation time is based on the duration in which frontal gamma oscillatory activity (30-100 Hz), a key feature of wakefulness, was elevated relative to a pre-treatment baseline. Mean cortical activation time was computed relative to vehicle treatment for the 6-hour post-dose period.

A value given as a limit tells only on which side of the number the result lay.

With `Cc1ncnc2c1[C@H]1CC[C@H](CC1)OCC1[C@@H](NS(C)(=O)=O)CCCN1C(=O)CO2` (stereo in doubt) [Compound 27], the efflux ratio at 2 h, 3 μM in the data set with MDR1 came to 48. The “Mean cortical activation time (% vehicle treatment)” value with Sprague-Dawley rats (PO) is given as 138.57 % vehicle treatment.
Take `O=C1COc2ncccc2[C@H]2CC[C@H](CC2)OCC2[C@@H](NS(=O)(=O)C(F)(F)F)CCCN12` (stereo in doubt) [Compound 91]: in the data set with MDR1, the efflux ratio at 2 h, 3 μM came to 47 and the apparent permeability from apical to basolateral (Papp A→B) – broadly, the apparent permeability from the apical to the basolateral side of a cell layer – at 2 h, 3 μM worked out at 0.96 ×10⁻⁶ cm/s. Besides, the “Mean cortical activation time (% vehicle treatment)” value in the data set on Sprague-Dawley rats (PO) was determined as 151.55 % vehicle treatment.
For `Cc1ccnc2c1[C@H]1CC[C@H](CC1)OCC1[C@@H](NS(=O)(=O)C(F)(F)F)CCN1C(=O)CO2` (stereo in doubt) [Compound 94], in the data set on MDR1, the efflux ratio at 2 h, 3 μM was determined as 4.7 and the apical-to-basolateral permeability (Papp A→B) at 2 h, 3 μM was 8.7 ×10⁻⁶ cm/s. In addition, in the data set on Sprague-Dawley rats (PO), the “Mean cortical activation time (% vehicle treatment)” value worked out at 152.81 % vehicle treatment.
As to `O=C1COc2cccc(F)c2[C@H]2CC[C@H](CC2)OCC2[C@@H](NS(=O)(=O)C(F)(F)F)CCCN12` (stereo in doubt) [Compound 95], in the data set with MDR1, the efflux ratio at 2 h, 3 μM amounted to 15 and the apical-to-basolateral permeability (Papp A→B) at 2 h, 3 μM came to 2 ×10⁻⁶ cm/s. The “Mean cortical activation time (% vehicle treatment)” value in the data set with Sprague-Dawley rats (PO) is on record as 312.26 % vehicle treatment.
For `O=C1COc2nccnc2[C@H]2CC[C@H](CC2)OCC2[C@@H](NS(=O)(=O)C(F)(F)F)CCCN12` (stereo in doubt) [Compound 98], in the data set on MDR1, the efflux ratio at 2 h, 3 μM was 57 and the Papp A→B at 2 h, 3 μM was 0.52 ×10⁻⁶ cm/s. Also, the “Mean cortical activation time (% vehicle treatment)” value in the data set on Sprague-Dawley rats (PO) was determined as 84.91 % vehicle treatment.
On the same counts, the results for `Cc1ncnc2c1[C@H]1CC[C@H](CC1)OCC1[C@@H](NS(=O)(=O)C(F)(F)F)CCCN1C(=O)CO2` (stereo in doubt) [Compound 99] are 52, 0.46 ×10⁻⁶ cm/s and 97.17 % vehicle treatment.
The matching figures for `O=C1COc2ccccc2[C@H]2CC[C@H](CC2)OCC2[C@@H](NS(=O)(=O)C(F)(F)F)CCN12` (stereo in doubt) [Compound 100]: 1.3, 12 ×10⁻⁶ cm/s and 265.17 % vehicle treatment.
The matching figures for `Cc1cccc2c1[C@H]1CC[C@H](CC1)OC[C@H]1[C@@H](NS(C)(=O)=O)CCN1C(=O)CO2` [Compound 20]: 6.4, 6.8 ×10⁻⁶ cm/s and 154.26 % vehicle treatment.
For the molecule `CC(C)S(=O)(=O)N[C@H]1CCN2C(=O)COc3c(F)cc(F)cc3[C@H]3CC[C@H](CC3)OC[C@@H]12` [Compound 29], in the data set with MDR1, the efflux ratio at 2 h, 3 μM was 2.5 and the Papp A→B at 2 h, 3 μM came out at 6.4 ×10⁻⁶ cm/s. The “Mean cortical activation time (% vehicle treatment)” value in the data set on Sprague-Dawley rats (PO) was 214.61 % vehicle treatment.
Consider `COC(=O)N1CCC[C@H](NS(C)(=O)=O)[C@@H]1CO[C@H]1CC[C@@H](c2ccccc2)CC1` [Reference Compound A, methyl (2R,3S)-3-((methylsulfonyl)amino)-2-(((cis-4-phenylcyclohexyl)oxy)methyl)-piperidine-l-carboxylate, reference compound], for which, in the data set on MDR1, the efflux ratio at 2 h, 3 μM is 5.9 and the apparent permeability from apical to basolateral (Papp A→B) at 2 h, 3 μM is 5 ×10⁻⁶ cm/s. For the same molecule, the “Mean cortical activation time (% vehicle treatment)” value with Sprague-Dawley rats (SC) stood at 118.75 % vehicle treatment.
Regarding `CC(C)(O)C(=O)N1CC[C@H](NS(C)(=O)=O)[C@@H]1Cc1cccc(-c2cc(F)cc(F)c2)c1F` [Reference Compound B, N-((2S,3S)-1-(2-hydroxy-2-methylpropanoy1)-2-((2,3′,5′-trifluorobipheny1-3-yl)methyl)pyrrolidin-3-yl)methanesulfonamide, reference compound], in the data set with MDR1, the efflux ratio at 2 h, 3 μM was more than 100 and the Papp A→B at 2 h, 3 μM amounted to 0.21 ×10⁻⁶ cm/s. Further, the “Mean cortical activation time (% vehicle treatment)” value in the data set with Sprague-Dawley rats (PO) worked out at 110.4 % vehicle treatment.
